Data: ChEMBL document CHEMBL3044925, “Synthesis of piperazino and morpholino derivatives of aryloxypropane with potential analgesic and possible antimigraine activities” (Med Chem Res, 2011)

Columns and labels:
[1] = test system: Mus musculus; experiment: Neurotoxicity against Mus musculus MFI (mouse) assessed as hair erection at 40 mg/kg, ip; assay type: toxicity, organism-based; set-up: dose 40 mg/kg, route intraperitoneal; conditions: in vivo
[2] = test system: Mus musculus; experiment: Neurotoxicity against Mus musculus MFI (mouse) assessed as excitation at 40 mg/kg, ip; assay type: toxicity, organism-based; set-up: dose 40 mg/kg, route intraperitoneal; conditions: in vivo
[3] = test system: Mus musculus; experiment: Neurotoxicity against Mus musculus MFI (mouse) assessed as muscle twitching at 75 mg/kg, ip; assay type: toxicity, organism-based, Muscle tissue; set-up: dose 75 mg/kg, route intraperitoneal; conditions: in vivo
[4] = test system: Mus musculus; experiment: Neurotoxicity against Mus musculus MFI (mouse) assessed as eye protrusion at 75 mg/kg, ip; assay type: toxicity, organism-based; set-up: dose 75 mg/kg, route intraperitoneal; conditions: in vivo
[5] = test system: Mus musculus; experiment: Neurotoxicity against Mus musculus MFI (mouse) assessed as epilepsy at 40 mg/kg, ip; assay type: toxicity, organism-based; set-up: dose 40 mg/kg, route intraperitoneal; conditions: in vivo
[6] = test system: Mus musculus; experiment: […] activity in Mus musculus MFI (mouse) assessed as inhibition of PBQ-induced writhing at 110 mg/kg, ip administered 1.5 hr prior to PBQ-challenge measured after 10 min relative to aspirin; assay type: functional; conditions: route intraperitoneal
[7] = test system: Mus musculus; experiment: Neurotoxicity against Mus musculus MFI (mouse) assessed as eye protrusion at 40 mg/kg, ip; assay type: toxicity, organism-based; set-up: dose 40 mg/kg, route intraperitoneal; conditions: in vivo
[8] = test system: Mus musculus; experiment: Neurotoxicity against Mus musculus MFI (mouse) assessed as skeletal muscle incoordination at 75 mg/kg, ip; assay type: toxicity, organism-based, Muscle tissue; set-up: dose 75 mg/kg, route intraperitoneal; conditions: in vivo
[9] = test system: Mus musculus; experiment: Neurotoxicity against Mus musculus MFI (mouse) assessed as epilepsy at 110 mg/kg, ip; assay type: toxicity, organism-based; set-up: dose 110 mg/kg, route intraperitoneal; conditions: in vivo
[10] = test system: Mus musculus; experiment: Neurotoxicity against Mus musculus MFI (mouse) assessed as effect on respiration at 110 mg/kg, ip; assay type: toxicity, organism-based; set-up: dose 110 mg/kg, route intraperitoneal; conditions: in vivo
[11] = test system: Mus musculus; experiment: Neurotoxicity against Mus musculus MFI (mouse) assessed as excitation at 75 mg/kg, ip; assay type: toxicity, organism-based; set-up: dose 75 mg/kg, route intraperitoneal; conditions: in vivo
[12] = test system: Mus musculus; experiment: Neurotoxicity against Mus musculus MFI (mouse) assessed as skeletal muscle incoordination at 40 mg/kg, ip; assay type: toxicity, organism-based, Muscle tissue; set-up: dose 40 mg/kg, route intraperitoneal; conditions: in vivo
[13] = test system: Mus musculus; experiment: Neurotoxicity against Mus musculus MFI (mouse) assessed as hair erection at 75 mg/kg, ip; assay type: toxicity, organism-based; set-up: dose 75 mg/kg, route intraperitoneal; conditions: in vivo
[14] = test system: Mus musculus; experiment: Neurotoxicity in ip dosed Mus musculus MFI (mouse); assay type: toxicity, organism-based; conditions: in vivo
[15] = test system: Mus musculus; experiment: Neurotoxicity against Mus musculus MFI (mouse) assessed as tail erection at 75 mg/kg, ip; assay type: toxicity, organism-based; set-up: dose 75 mg/kg, route intraperitoneal; conditions: in vivo
[16] = test system: Mus musculus; experiment: Neurotoxicity against Mus musculus MFI (mouse) assessed as tremors at 110 mg/kg, ip; assay type: toxicity, organism-based; set-up: dose 110 mg/kg, route intraperitoneal; conditions: in vivo
[17] = test system: Mus musculus; experiment: Neurotoxicity against Mus musculus MFI (mouse) assessed as effect on respiration at 75 mg/kg, ip; assay type: toxicity, organism-based; set-up: dose 75 mg/kg, route intraperitoneal; conditions: in vivo
[18] = test system: Mus musculus; experiment: Neurotoxicity against Mus musculus MFI (mouse) assessed as irritability at 110 mg/kg, ip; assay type: toxicity, organism-based; set-up: dose 110 mg/kg, route intraperitoneal; conditions: in vivo
[19] = test system: Mus musculus; experiment: Neurotoxicity against Mus musculus MFI (mouse) assessed as excitation at 110 mg/kg, ip; assay type: toxicity, organism-based; set-up: dose 110 mg/kg, route intraperitoneal; conditions: in vivo
[20] = test system: Mus musculus; experiment: Neurotoxicity against Mus musculus MFI (mouse) assessed as irritability at 40 mg/kg, ip; assay type: toxicity, organism-based; set-up: dose 40 mg/kg, route intraperitoneal; conditions: in vivo
[21] = test system: Mus musculus; experiment: Neurotoxicity against Mus musculus MFI (mouse) assessed as tail erection at 110 mg/kg, ip; assay type: toxicity, organism-based; set-up: dose 110 mg/kg, route intraperitoneal; conditions: in vivo
[22] = test system: Mus musculus; experiment: […] activity in ip dosed Mus musculus MFI (mouse) assessed as inhibition of PBQ-induced writhing administered 1.5 hr prior to PBQ-challenge measured after 10 min; assay type: functional; conditions: read-out: MED
[23] = test system: Mus musculus; experiment: Neurotoxicity against Mus musculus MFI (mouse) assessed as tremors at 40 mg/kg, ip; assay type: toxicity, organism-based; set-up: dose 40 mg/kg, route intraperitoneal; conditions: in vivo
[24] = test system: Mus musculus; experiment: […] activity in Mus musculus MFI (mouse) assessed as inhibition of PBQ-induced writhing at 40 mg/kg, ip administered 1.5 hr prior to PBQ-challenge measured after 10 min relative to aspirin; assay type: functional; conditions: route intraperitoneal
[25] = test system: Mus musculus; experiment: Neurotoxicity against Mus musculus MFI (mouse) assessed as muscle twitching at 40 mg/kg, ip; assay type: toxicity, organism-based, Muscle tissue; set-up: dose 40 mg/kg, route intraperitoneal; conditions: in vivo
[26] = test system: Mus musculus; experiment: […] activity in Mus musculus MFI (mouse) assessed as inhibition of PBQ-induced writhing at 75 mg/kg, ip administered 1.5 hr prior to PBQ-challenge measured after 10 min relative to aspirin; assay type: functional; conditions: route intraperitoneal
[27] = test system: Mus musculus; experiment: Neurotoxicity against Mus musculus MFI (mouse) assessed as skeletal muscle incoordination at 110 mg/kg, ip; assay type: toxicity, organism-based, Muscle tissue; set-up: dose 110 mg/kg, route intraperitoneal; conditions: in vivo
[28] = test system: Mus musculus; experiment: Neurotoxicity against Mus musculus MFI (mouse) assessed as epilepsy at 75 mg/kg, ip; assay type: toxicity, organism-based; set-up: dose 75 mg/kg, route intraperitoneal; conditions: in vivo
[29] = test system: Mus musculus; experiment: Neurotoxicity against Mus musculus MFI (mouse) assessed as irritability at 75 mg/kg, ip; assay type: toxicity, organism-based; set-up: dose 75 mg/kg, route intraperitoneal; conditions: in vivo
[30] = test system: Mus musculus; experiment: Neurotoxicity against Mus musculus MFI (mouse) assessed as muscle twitching at 110 mg/kg, ip; assay type: toxicity, organism-based, Muscle tissue; set-up: dose 110 mg/kg, route intraperitoneal; conditions: in vivo
[31] = test system: Mus musculus; experiment: Neurotoxicity against Mus musculus MFI (mouse) assessed as effect on respiration at 40 mg/kg, ip; assay type: toxicity, organism-based; set-up: dose 40 mg/kg, route intraperitoneal; conditions: in vivo
[32] = test system: Mus musculus; experiment: Neurotoxicity against Mus musculus MFI (mouse) assessed as tremors at 75 mg/kg, ip; assay type: toxicity, organism-based; set-up: dose 75 mg/kg, route intraperitoneal; conditions: in vivo
[33] = test system: Mus musculus; experiment: Neurotoxicity against Mus musculus MFI (mouse) assessed as hair erection at 110 mg/kg, ip; assay type: toxicity, organism-based; set-up: dose 110 mg/kg, route intraperitoneal; conditions: in vivo
[34] = test system: Mus musculus; experiment: Neurotoxicity against Mus musculus MFI (mouse) assessed as eye protrusion at 110 mg/kg, ip; assay type: toxicity, organism-based; set-up: dose 110 mg/kg, route intraperitoneal; conditions: in vivo
[35] = test system: Mus musculus; experiment: Neurotoxicity against Mus musculus MFI (mouse) assessed as tail erection at 40 mg/kg, ip; assay type: toxicity, organism-based; set-up: dose 40 mg/kg, route intraperitoneal; conditions: in vivo

SMILES: CC(CN1CCN(C)CC1)Oc1c(Br)cccc1Br.O=C(O)C(=O)O (racemic)
- Activity [1]: Toxic
- Activity [2]: Toxic
- Activity [3]: Toxic
- Activity [4]: Toxic
- Activity [5]: Toxic
- inhibition in vivo at 110 mg/kg [6]: 100%
- Activity [7]: Toxic
- Activity [8]: Toxic
- Activity [9]: Toxic
- Activity [10]: Toxic
- Activity [11]: Toxic
- Activity [12]: Toxic
- Activity [13]: Toxic
- MTC [14]: 75 mg/kg
- Activity [15]: Toxic
- Activity [16]: Toxic
- Activity [17]: Toxic
- Activity [18]: Toxic
- Activity [19]: Toxic
- Activity [20]: Toxic
- Activity [21]: Toxic
- minimal effective dose [22]: 40 mg/kg
- Activity [23]: Toxic
- inhibition in vivo at 40 mg/kg [24]: 12.5%
- Activity [25]: Toxic
- inhibition in vivo at 75 mg/kg [26]: 37.5%
- Activity [27]: Toxic
- Activity [28]: Toxic
- Activity [29]: Toxic
- Activity [30]: Toxic
- Activity [31]: Toxic
- Activity [32]: Toxic
- Activity [33]: Toxic
- Activity [34]: Toxic
- Activity [35]: Toxic
